The test system of this data set is RAW264.7 cells. The experiment in a line: Cytotoxicity assay (XTT, cell viability). As to conditions: 4 days, at concentrations of 2.5, 5, 10, and 25 μM (FIG. 7 to FIG. 10). As for the experimental part:
The cells were treated with 50 μl of XTT reagent per well, then reacted for four hours. An absorbance change thereof was measured at 490 nm and 650 nm (reference wavelength) by ELISA (enzyme linked immunosorbent assay) reader (Molecular Devices, USA), and a cell viability was expressed as a percentage.
In general terms: Tetrazolium dyes change colour on reduction, which living cells bring about.

Each structure is given as a SMILES string.

Turning to `C[C@@H]1O[C@@H](Oc2c(-c3ccc(O)c(O)c3)oc3cc(O)cc(O)c3c2=O)[C@H](O)[C@H](O)[C@H]1O` [quercitrin, Quercitrin], the cytotoxicity entry is listed as “no cytotoxicity”.
